{"source": "patent US8022105B2", "about": "“Prevention of neutrophil recruitment” (The Brigham and Women's Hospital, Inc., priority 1999, dated 2011)", "key": {"[1]": {"tested_on": "TNF-a-induced PMN infiltration", "assay": "TNF-a-induced PMN infiltration into mouse dorsal air pouch", "assay_type": "in vivo", "parameters": "toxicity to the mice: dose or concentration left out as unconfirmed", "conditions": "for inhibition of TNF-a-induced PMN infiltration, local air pouch delivery: local into air pouch prior to TNF-a (20 ng/mouse), ATLa2 and dexamethasone, ASA 1.0 mg/mouse", "protocol": "When injected locally into the air pouch, following injection of vehicle (900 ml PBS), murine TNF-a (20 ng/100 ml PBS) induced the infiltration of 4.8±1.1×10^6 PMN by 4 h. Dexamethasone (10 mg/air pouch), ASA (1 mg/air pouch), and ATLa2 (10 mg/air pouch) were locally administered in 900 ml PBS and prior to TNF-a. Systemic delivery of ATLa2 was by i.v. injection into the mouse tail vein (10 mg/mouse). 2.1±0.7×105 PMN were found in the air pouch 4 h after injection of vehicle (1 ml sterile PBS) alone. Values represent mean±SEM (n=3-5). *P<0.05, †P<0.15 Student's two-tailed t-test\nPMN infiltration into mouse air pouch. While male BALB/c mice (6-8 wk) were anesthetized with isoflurane, dorsal air pouches were raised by injecting 3 ml of sterile air subcutaneously on days 0 and 3 (as in ref.) (Sin, Y. M., Sedgwick, A. D., Chea, E. P. & Willoughby, D. A. (1986) Ann. Rheum. Dis. 45, 873-877). On day 6 and while the mice were anesthetized with isoflurane, 10 mg of ATLa2 was delivered as a bolus injection into either the tail vein in 100 ml of sterile 0.9% saline or locally into the air pouch in 900 ml of PBS −/− (Dulbecco's Phosphate Buffered Saline without magnesium or calcium ions, BioWhittaker, Walkersville, Md.). Dexamethasone and ASA (Sigma Chemical Co., St. Louis, Mo.) were delivered locally as 10 mg and 1.0 mg doses in 900 ml of PBS −/−, respectively. Inflammation in the air pouch was induced by local injection of recombinant murine TNF-a (20 ng) (Boehringer Mannheim, Indianapolis, Ind.) dissolved in 100 ml of sterile PBS. While the mice were anesthetized with isoflurane, the air pouches were lavaged twice with 3 ml of sterile PBS 4 h after the initial TNF-a injection. Aspirates were centrifuged at 2000 rpm for 15 min at 23° C. The supernatants were removed and the cells were suspended in […] of PBS. Aliquots of the cell suspension were stained with Trypan Blue and enumerated by light microscopy. 50 ml of the resuspended aspirate cells were added to 150 ml of 30% BSA and centrifuged onto microscope slides at 2200 rpm for 4 min using a Cytofuge (StatSpin, Norwood, Mass.). Slides were allowed to air dry and were stained with Wright Giemsa stain (Sigma Chemical Co., St. Louis, Mo.) for determination of differential leukocyte counts. For microscopic analysis, tissues were obtained with a 6 mm tissue biopsy punch (Acu-Punch, Acuderm, Inc., Ft. Lauderdale, Fla.) and fixed in 10% buffered formaldehyde. Samples were then embedded in paraffin, sliced, and stained with hematoxylin-eosin."}, "[2]": {"assay": "Methyl ester hydrolysis of ATLa2 to free acid in ex vivo mouse whole blood", "assay_type": "in vitro ADME", "conditions": "within 10-15 minutes, 2.8 μM in mouse whole blood", "protocol": "FIG. 7 represents methyl ester hydrolysis of ATLa2 to free acid in ex vivo mouse whole blood. ATLa2 was incubated ex vivo in mouse whole blood (2.8 μM) for 0, 2, 5, 10, 15, or 180 minutes. The incubations were stopped by chilling the blood on ice for one minute followed by centrifugation (800×g) at 0° C. The plasma supernatant was stopped in 2 vol of ice cold methanol. The samples were prepared for analysis by solid phase extraction and the amount of free acid in the sample was quantiitated by LC/MS/MS. Within 10-15 minutes, 100% of the ATLa2 methyl ester is hydrolyzed to the free acid without loss of compound. Values represent mean±SEM (n=3)."}, "[3]": {"assay": "Mouse arterial pressure after tail vein injection", "assay_type": "in vivo", "parameters": "maximum mean decrease in arterial pressure: dose or concentration left out as unconfirmed", "protocol": "Mouse arterial pressure was monitored with a pressure transducer via the cannulated carotid artery. […] 10 mg of ATLa2 were injected into 3 mice with no change in mean arterial pressure. Values represent mean±SEM (n=3). Arterial pressure. Male BALB/c mice (6-8 wk, 20 g) were anesthetized with pentobarbital (80 mg/kg). The trachea was isolated and a small polyethylene catheter (PE50) was introduced to maintain a patent airway. The right carotid artery was isolated and cannulated with PE 10 tubing filled with heparinized (10 units/ml) normal saline. The arterial catheter was connected to a pressure transducer (World Precision Instruments, Sarasota, Fla.) and the arterial pressure tracing was recorded continuously (Astromed MT95K2, West Warwick, R.I.). All surgical manipulations were performed using a surgical microscope (Carl Zeiss, Inc., Thomwood, N.Y.)."}, "isolated rat aorta": {"tested_on": "isolated rat aorta", "assay": "Relaxation of pre-contracted isolated rat aorta", "parameters": "relaxation as % of the level of relaxation caused by Iloprost: dose or concentration left out as unconfirmed", "conditions": "for relaxation of smooth muscle: aorta pre-contracted with U46619 (25 ng/ml)", "protocol": "Rats were euthanized with pentobarbital overdoses. The aorta was isolated and a pre-load of 300-400 mg given. The vessels were pre-contracted with U46619 (25 ng/ml). Relaxation was induced with addition of Iloprost, 5(R/S)-methyl-LXB4, ATLa1, or ATLa2 to a final concentration of […]. Aorta smooth muscle relaxation was measured with a force transducer and the data digitized and stored on a PC. 5(R/S)-methyl -LXB4, ATLa1, and ATLa2 caused 42.8%, 37.0%, 38.1%, and 40.0% relaxation of smooth muscle, respectively. Values represent±SEM (n=4-6).\nFor example, topical administration of LXA4 ([…]) induces arteriolar dilation in the hamster cheek with no change in venular diameters while systemic delivery into rats produces a vasoconstrictor response in the mesenteric bed (26). In addition, 20 min infusion of 1 or 2 mg/kg LXA4 induces renal vasorelaxation in rats without changing mean arterial pressure (27). To determine whether the increased stability of ATLa2 enhances potential vasoreactivity at the therapeutic dose found to inhibit PMN infiltration in FIGS. 2 and 5, vascular changes in response to ATLa2 were compared directly to those of Iloprost, a prostacyclin stable analog that rapidly stimulates arterial vasodilation (Grant, S. M. & Goa, K. L. (1992) Drugs 43, 899-924). Added to organ baths, ATLa2 relaxed precontracted isolated rat aorta to ˜40% of the level of relaxation caused by equimolar treatment ([…]) with Iloprost (not shown). […] In sharp contrast, injection of equimolar quantities of Iloprost elicited a maximum mean decrease of ˜28 mmHg ˜50 s post-injection, with pressure returning to baseline after ˜8 min."}, "[4]": {"conditions": "male, BALB/c, 3 h, 2.4 mM", "method": "(§1) LXA4 (21 mM) was incubated ex vivo in mouse whole blood for 3 h. […] (B) Biostability of LXA4 and stable analogs in mouse whole blood. LXA4, 15(R/S)-methyl-LXA4 (ATLa1, which carries a racemic methyl group at C-15), and 15-epi-16-(para-fluoro)-phenoxy-LXA4(ATLa2, in which a bulky (para-fluoro)-phenoxy group replaces the w-chain at C-16) were added (see Methods) to heparinized mouse whole blood and incubated at 37° C. for 0 and 3 h. Following centrifugation at 800×g and 0° C., the plasma supernatants were drawn off and stopped in two volumes of ice cold methanol. The lipoxins were extracted by solid phase methodology and quantitated by LC/MS/MS. Values represent means±SEM (n=3-4).\n(§2) Biostability of LX analogs in mouse whole blood. […] The methyl formate fractions were taken to dryness with a gentle stream of nitrogen and suspended in methanol for injection and quantitative analyses by UV spectrophotometry and LC/MS/MS.\n(§3) LC/MS/MS analyses. […] Samples were suspended in methanol and injected into the HPLC component, which consisted of a SpectraSYSTEM P4000 (Thermo Separation Products, San Jose, Calif.) quaternary gradient pump, a Prodigy octadecylsilane-3 (100×2 mm, 5 mm) column (Phenomenex, Torrance, Calif.) or a LUNA C18-2 (150×2 mm, 5 mm) column, and a rapid spectra scanning SpectraSYSTEM UV2000 (Thermo Separation Products, San Jose, Calif.) UV/VIS absorbance detector. […]"}, "[5]": {"assay": "Biostability in human whole blood", "assay_type": "in vitro ADME"}, "[6]": {"assay": "Biostability of LX analogs in mouse whole blood", "conditions": "incubated 3 h at 37° C., LC/MS/MS", "method": "as §1, §2, §3"}, "[7]": {"tested_on": "LTB4-induced PMN infiltration", "conditions": "added topically, in vivo; cited from earlier work"}}, "note": "Entries after “also recorded” stand apart in the source; their conditions may differ. Like-named read-outs stand apart in the source and are kept apart here.", "data": [{"molecule": "C[C@@H]1C[C@H]2[C@@H]3CCC4=CC(=O)C=C[C@]4(C)[C@@]3(F)[C@@H](O)C[C@]2(C)[C@@]1(O)C(=O)CO", "note": "[dexamethasone, reference compound]", "values": [{"measurement": "inhibition of TNF-a-induced PMN infiltration, local air pouch delivery", "setting": "[1]; 4 h", "result": 61, "unit": "%"}]}, {"molecule": "COC(=O)CCC[C@H](O)[C@H](O)/C=C/C=C/C=C\\C=C\\[C@H](O)COc1ccc(F)cc1", "note": "[ATLa2]", "values": [{"measurement": "ATLa2 methyl ester hydrolyzed to the free acid", "setting": "[2]", "result": 100, "unit": "%"}, {"measurement": "inhibition of TNF-a-induced PMN infiltration, i.v. delivery", "setting": "[1]; i.v. tail vein before TNF-a (20 ng/mouse), 4 h", "result": 85, "unit": "%"}, {"measurement": "number of neutrophils in tissue lining of the air pouch (histology)", "setting": "[1]; intra-pouch injection or i.v. prior to TNF-a", "result": "reduced"}, {"measurement": "inhibition of TNF-a-induced PMN infiltration, local air pouch delivery", "setting": "[1]; 4 h", "result": "~77", "unit": "%"}, {"measurement": "toxicity to the mice", "setting": "[1]; local or i.v.", "result": "no apparent toxicity"}, {"measurement": "change in mean arterial pressure", "setting": "[3]; (24 nmol/mouse) tail vein injection", "result": "no apparent changes; also recorded: no change"}, {"measurement": "relaxation of smooth muscle", "setting": "isolated rat aorta", "result": 40.0, "unit": "%"}, {"measurement": "relaxation as % of the level of relaxation caused by Iloprost", "setting": "isolated rat aorta; organ baths", "result": "~40", "unit": "%"}, {"measurement": "remaining / recoverable in mouse whole blood", "setting": "[4]", "result": "~100", "unit": "%"}]}, {"molecule": "CCCCCC(C)(O)/C=C/C=C\\C=C\\C=C\\[C@@H](O)[C@@H](O)CCCC(=O)O", "note": "(mixture of isomers) [ATLa1, 15(R/S)-methyl-LXA4]", "values": [{"measurement": "biostability in human whole blood compared with mouse whole blood", "setting": "[5]", "result": "quantitatively similar results"}, {"measurement": "relaxation of smooth muscle", "setting": "isolated rat aorta", "result": 38.1, "unit": "%"}, {"measurement": "remaining / recoverable in mouse whole blood", "setting": "[6]", "result": "~90", "unit": "%"}]}, {"molecule": "CCCCC[C@H](O)/C=C/C=C\\C=C\\C=C\\[C@@H](O)[C@@H](O)CCCC(=O)O", "note": "[LXA4, 5S,6R,15S-trihydroxyeicosa-7E,9E,11Z,13E-tetraenoic acid]", "values": [{"measurement": "level of inhibition of LTB4-induced PMN recruitment compared to that of either ATLa1 or ATLa2", "setting": "[7]", "result": "less than 25%"}]}, {"molecule": "CC(=O)Oc1ccccc1C(=O)O", "note": "[ASA, acetylsalicylic acid, reference compound]", "values": [{"measurement": "inhibition of TNF-a-induced PMN infiltration, local air pouch delivery", "setting": "[1]; 4 h", "result": 69, "unit": "%"}]}, {"molecule": "CC#CCC(C)[C@H](O)/C=C/[C@@H]1[C@H]2C/C(=C/CCCC(=O)O)C[C@H]2C[C@H]1O", "note": "(stereo partly shown) [Iloprost, reference compound]", "values": [{"measurement": "time of maximum mean decrease post-injection", "setting": "[3]; tail vein injection", "result": "~50", "unit": "s"}, {"measurement": "maximum mean decrease in arterial pressure", "setting": "[3]; tail vein injection, (equimolar to ATLa2)", "result": "~28", "unit": "mmHg"}, {"measurement": "relaxation of smooth muscle", "setting": "isolated rat aorta", "result": 42.8, "unit": "%"}]}, {"molecule": "CCCCCC(O)C(O)C=CC=CC=CC=CC(C)(O)CCCC(=O)O", "note": "(racemic) [5(R/S)-methyl-LXB4]", "values": [{"measurement": "relaxation of smooth muscle", "setting": "isolated rat aorta", "result": 37.0, "unit": "%"}]}]}
